# Literature values, collected in patent publication CN114794330A, “一种调节水生动物活力状态的功能性调理剂及其制备方法” (Nori Shanghai Bioengineering Co ltd, priority 2022, dated 2022).
structure (smiles),measurement,setting,value
"NCCS(=O)(=O)O [牛磺酸, 2-氨基乙磺酸]",solubility in 95% ethanol,"95% ethanol, 17℃",0.004%
same,solubility in acetone,acetone,不溶
same,solubility in anhydrous ethanol,anhydrous ethanol,不溶
same,solubility in diethyl ether,diethyl ether,不溶
same,solubility in water,"water, 12℃",0.5%
